# From ChEMBL document CHEMBL1201862, “PubChem BioAssay data set” (2004)
#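 Cells were grown in 96-well plates and exposed to each compound for 48 hours at five concentrations; endpoints were interpolated linearly between bracketing concentrations, or set to the highest concentration if not reached. Here, GI50 denotes the concentration required for 50% inhibition of growth.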 Calls of active or inactive are those of the source. No stated cut-off is given here; in the data, active = GI50 up to about 1.1 µM and inactive = higher.
# Assays:
# Assay in all cases: growth of human tumour cells (NCI), 48 h
# LOX IMVI = system: LOX IMVI
# SN12C = system: SN12C
# UACC-257 = system: UACC-257
# UACC-62 = system: UACC-62
# Hs-578T = system: Hs-578T
# OVCAR-5 = system: OVCAR-5
# PC-3 = system: PC-3
# HL-60 = system: HL-60
# SF-539 = system: SF-539
# MDA-MB-435 = system: MDA-MB-435
# 786-0 = system: 786-0
# HCT-116 = system: HCT-116
# CAKI-1 = system: CAKI-1
# EKVX = system: EKVX
# ACHN = system: ACHN
# CCRF-CEM = system: CCRF-CEM
# HOP-62 = system: HOP-62
# Malme-3M = system: Malme-3M
# DU-145 = system: DU-145
Compound,GI50 (LOX IMVI),GI50 (SN12C),GI50 (UACC-257),GI50 (UACC-62),GI50 (Hs-578T),GI50 (OVCAR-5),GI50 (PC-3),GI50 (HL-60),GI50 (SF-539),GI50 (MDA-MB-435),GI50 (786-0),GI50 (HCT-116),GI50 (CAKI-1),GI50 (EKVX),GI50 (ACHN),GI50 (CCRF-CEM),GI50 (HOP-62),GI50 (Malme-3M),GI50 (DU-145)
c1ccc(CNCCCNCCCCNCCCNCc2ccccc2)cc1,3.15 µM (inactive),3.72 µM (inactive),15 µM (inactive),6.59 µM (inactive),1.91 µM (inactive),5.22 µM (inactive),4.88 µM (inactive),0.656 µM (active),1.76 µM (inactive),4.22 µM (inactive),1.5 µM (inactive),2.94 µM (inactive),10.3 µM (inactive),9.42 µM (inactive),6.05 µM (inactive),1.86 µM (inactive),4.15 µM (inactive),2.02 µM (inactive),12.8 µM (inactive)
COc1ccc(N2C(=O)CS(=O)(=O)C2c2cccc(Oc3ccccc3)c2)cc1 (stereo not drawn),4.4 µM (inactive),4.65 µM (inactive),2.74 µM (inactive),2.21 µM (inactive),3.78 µM (inactive),7.73 µM (inactive),3.65 µM (inactive),3.32 µM (inactive),3.54 µM (inactive),0.959 µM (active),4.7 µM (inactive),2.17 µM (inactive),2.72 µM (inactive),9.91 µM (inactive),4.92 µM (inactive),5.25 µM (inactive),7.53 µM (inactive),7.74 µM (inactive),6.65 µM (inactive)
O=c1[nH]nc(Nc2ccccc2)c2nnn(Cc3ccccc3)c12,> 100 µM (inactive),> 100 µM (inactive),> 100 µM (inactive),> 100 µM (inactive),17.6 µM (inactive),> 100 µM (inactive),> 100 µM (inactive),> 100 µM (inactive),54.2 µM (inactive),> 100 µM (inactive),25.3 µM (inactive),83.9 µM (inactive),> 100 µM (inactive),> 100 µM (inactive),> 100 µM (inactive),> 100 µM (inactive),4.52 µM (inactive),,> 100 µM (inactive)
CCN1C2=NCCN2S(=O)(=O)c2ccccc21,> 100 µM (inactive),> 100 µM (inactive),> 100 µM (inactive),> 100 µM (inactive),> 100 µM (inactive),> 100 µM (inactive),> 100 µM (inactive),> 100 µM (inactive),> 100 µM (inactive),> 100 µM (inactive),> 100 µM (inactive),> 100 µM (inactive),> 100 µM (inactive),> 100 µM (inactive),> 100 µM (inactive),> 100 µM (inactive),> 100 µM (inactive),,> 100 µM (inactive)
N#CCCN(CCCN(C(=O)Nc1ccc(NC(=O)N(CCCN(CCC#N)C(N)=O)c2ccccc2)cc1)c1ccccc1)C(N)=O,> 100 µM (inactive),,> 100 µM (inactive),> 100 µM (inactive),> 100 µM (inactive),> 100 µM (inactive),> 100 µM (inactive),> 100 µM (inactive),> 100 µM (inactive),> 100 µM (inactive),> 100 µM (inactive),> 100 µM (inactive),> 100 µM (inactive),> 100 µM (inactive),> 100 µM (inactive),87.5 µM (inactive),> 100 µM (inactive),> 100 µM (inactive),> 100 µM (inactive)
COc1ccc(C)cc1NC(=S)N/N=C/c1ccc(SC)cc1,59.6 µM (inactive),> 100 µM (inactive),,> 100 µM (inactive),> 100 µM (inactive),25.1 µM (inactive),75 µM (inactive),31.8 µM (inactive),27.8 µM (inactive),38.4 µM (inactive),83.6 µM (inactive),69.3 µM (inactive),47.6 µM (inactive),,> 100 µM (inactive),54.8 µM (inactive),28.8 µM (inactive),96.4 µM (inactive),66.8 µM (inactive)
CCCCCCCCCCCCCCCC(=O)OC(COC(C)=O)CO[PH](=O)O (stereo not drawn),23.2 µM (inactive),48.5 µM (inactive),34 µM (inactive),37.3 µM (inactive),11.8 µM (inactive),16.1 µM (inactive),30.5 µM (inactive),31.9 µM (inactive),20.8 µM (inactive),29.5 µM (inactive),20.3 µM (inactive),,41.9 µM (inactive),49.3 µM (inactive),27.7 µM (inactive),37.2 µM (inactive),,34.8 µM (inactive),71.4 µM (inactive)
Cc1cccc2c1C(=O)[C@@](C)([C@]1(C)Nc3cccc(C)c3C1=O)N2,> 100 µM (inactive),> 100 µM (inactive),> 100 µM (inactive),> 100 µM (inactive),> 100 µM (inactive),> 100 µM (inactive),38.7 µM (inactive),0.499 µM (active),> 100 µM (inactive),31.1 µM (inactive),> 100 µM (inactive),> 100 µM (inactive),> 100 µM (inactive),> 100 µM (inactive),> 100 µM (inactive),49.4 µM (inactive),> 100 µM (inactive),> 100 µM (inactive),> 100 µM (inactive)
Cc1ccc2c(n1)C(=O)C=CC2=O,4.88 µM (inactive),13.4 µM (inactive),7.35 µM (inactive),13.7 µM (inactive),30.8 µM (inactive),18.2 µM (inactive),16.8 µM (inactive),0.486 µM (active),16.5 µM (inactive),17.2 µM (inactive),5.96 µM (inactive),1.97 µM (inactive),2.02 µM (inactive),7.03 µM (inactive),2.89 µM (inactive),1.17 µM (inactive),26.3 µM (inactive),5.79 µM (inactive),14.8 µM (inactive)
Cc1ccc(Nc2nc3[nH]ccc3c(=O)[nH]2)cc1,> 100 µM (inactive),> 100 µM (inactive),> 100 µM (inactive),93.8 µM (inactive),35.8 µM (inactive),> 100 µM (inactive),37.8 µM (inactive),75.5 µM (inactive),> 100 µM (inactive),> 100 µM (inactive),> 100 µM (inactive),> 100 µM (inactive),85.5 µM (inactive),76.2 µM (inactive),> 100 µM (inactive),> 100 µM (inactive),> 100 µM (inactive),> 100 µM (inactive),53.6 µM (inactive)
Cc1ccc(S(=O)(=O)/N=C2/N(C)CCCS2(=O)=O)cc1,> 100 µM (inactive),> 100 µM (inactive),> 100 µM (inactive),> 100 µM (inactive),> 100 µM (inactive),> 100 µM (inactive),> 100 µM (inactive),> 100 µM (inactive),> 100 µM (inactive),> 100 µM (inactive),> 100 µM (inactive),> 100 µM (inactive),> 100 µM (inactive),> 100 µM (inactive),> 100 µM (inactive),> 100 µM (inactive),> 100 µM (inactive),,> 100 µM (inactive)
COc1cccc(/C=C2\N=C(c3ccccc3)OC2=O)c1,26.4 µM (inactive),65.2 µM (inactive),> 100 µM (inactive),> 100 µM (inactive),22.5 µM (inactive),> 100 µM (inactive),> 100 µM (inactive),10.7 µM (inactive),43.1 µM (inactive),> 100 µM (inactive),74.5 µM (inactive),> 100 µM (inactive),> 100 µM (inactive),> 100 µM (inactive),> 100 µM (inactive),25 µM (inactive),61.1 µM (inactive),,91.2 µM (inactive)
C[Si](C)(OCCS(=O)(=O)O)C1(Cc2cccc3ccccc23)S(=O)(=O)OCCOS1(=O)=O,16.2 µM (inactive),18.2 µM (inactive),28.1 µM (inactive),17.9 µM (inactive),33.2 µM (inactive),18.7 µM (inactive),19 µM (inactive),8.26 µM (inactive),18.6 µM (inactive),18.6 µM (inactive),,18.5 µM (inactive),17.5 µM (inactive),17.7 µM (inactive),18.1 µM (inactive),18.3 µM (inactive),19.6 µM (inactive),,19.6 µM (inactive)
O=S(=O)(O)c1ccc(-c2c3nc(c(-c4ccc(S(=O)(=O)O)cc4)c4ccc([nH]4)c(-c4ccc(S(=O)(=O)O)cc4)c4nc(c(-c5ccc(S(=O)(=O)O)cc5)c5ccc2[nH]5)C=C4)C=C3)cc1,37.8 µM (inactive),42.7 µM (inactive),> 100 µM (inactive),> 100 µM (inactive),13.9 µM (inactive),53.5 µM (inactive),> 100 µM (inactive),55.5 µM (inactive),> 100 µM (inactive),61 µM (inactive),> 100 µM (inactive),> 100 µM (inactive),28.3 µM (inactive),,45.7 µM (inactive),23 µM (inactive),> 100 µM (inactive),32.5 µM (inactive),39.1 µM (inactive)
OCCCCCNc1nc(O)c2[nH]cnc2n1,> 100 µM (inactive),> 100 µM (inactive),> 100 µM (inactive),> 100 µM (inactive),90.8 µM (inactive),> 100 µM (inactive),> 100 µM (inactive),> 100 µM (inactive),8.17 µM (inactive),> 100 µM (inactive),> 100 µM (inactive),> 100 µM (inactive),> 100 µM (inactive),> 100 µM (inactive),> 100 µM (inactive),> 100 µM (inactive),> 100 µM (inactive),> 100 µM (inactive),> 100 µM (inactive)
